Assay results from patent US20180148452A1, “TOLL-LIKE RECEPTOR-7 AGONIST” (MEDSHINE DISCOVERY INC., priority 2014, published 2018).
Counter-ions that a name gives are not always drawn.

What was measured:
hTLR7 = molecular target: T1, hTLR7 (Homo sapiens, UniProt Q9NYK1); assay: TLR7 agonist screening protocol in vitro (HEK-Blue-hTLR7 reporter, QUANTI-Blue); type: cell-based; settings: HEK-Blue-hTLR7 cells, 24 hours incubation, alkaline phosphatase OD650
T1 construct: expressed in transfected cells; host or cells: HEK-Blue-hTLR7 cells (HEK293-derived SEAP reporter line)
T1 sequence (Q9NYK1 27-1049): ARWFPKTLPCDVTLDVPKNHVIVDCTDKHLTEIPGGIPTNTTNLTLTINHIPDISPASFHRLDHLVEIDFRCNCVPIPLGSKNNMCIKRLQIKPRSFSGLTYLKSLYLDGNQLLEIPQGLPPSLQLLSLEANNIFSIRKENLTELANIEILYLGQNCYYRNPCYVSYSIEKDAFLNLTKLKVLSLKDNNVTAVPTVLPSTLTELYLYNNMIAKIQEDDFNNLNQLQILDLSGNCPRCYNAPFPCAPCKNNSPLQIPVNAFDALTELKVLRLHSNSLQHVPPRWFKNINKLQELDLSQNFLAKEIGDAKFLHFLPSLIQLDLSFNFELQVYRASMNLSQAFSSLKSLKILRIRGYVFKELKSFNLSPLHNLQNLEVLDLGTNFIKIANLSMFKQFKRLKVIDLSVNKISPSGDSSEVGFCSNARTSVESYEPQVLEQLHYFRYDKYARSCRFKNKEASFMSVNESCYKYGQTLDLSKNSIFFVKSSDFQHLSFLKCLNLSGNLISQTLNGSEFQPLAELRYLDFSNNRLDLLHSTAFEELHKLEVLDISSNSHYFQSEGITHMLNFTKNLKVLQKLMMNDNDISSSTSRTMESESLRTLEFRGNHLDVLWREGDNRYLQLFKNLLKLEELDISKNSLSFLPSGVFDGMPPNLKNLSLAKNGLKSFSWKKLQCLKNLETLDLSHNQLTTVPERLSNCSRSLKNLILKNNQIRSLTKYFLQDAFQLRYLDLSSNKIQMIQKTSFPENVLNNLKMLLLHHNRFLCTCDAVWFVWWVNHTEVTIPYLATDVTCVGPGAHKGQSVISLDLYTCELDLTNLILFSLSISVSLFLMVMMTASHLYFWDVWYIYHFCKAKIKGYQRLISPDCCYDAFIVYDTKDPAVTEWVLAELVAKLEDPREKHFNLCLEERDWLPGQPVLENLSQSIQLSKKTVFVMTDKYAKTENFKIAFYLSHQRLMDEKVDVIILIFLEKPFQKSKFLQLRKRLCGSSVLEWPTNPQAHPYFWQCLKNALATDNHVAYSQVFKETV
Experimental: Test 1: TLR7 Agonist Screening Protocol In Vitro
1. Preparation for 96-well plate: Compounds are 3 folds serial diluted with DMSO by POD, start from 10 mM, 10 concentrations (column 2 to 11, duplicated), 1 μL DMSO per well. Take 1 μL of 5 mM R848 as positive control (column 12) and 1 μL of DMSO as negative control (column 1).
2. Harvest cells and adjust cell suspension to the density of 250,000 cells/ml.
3. 200 μL cells are seeded into the cell culture plate containing compounds with the cell density of 50,000 cells/well, the final DMSO concentration is 0.5%.
4. Incubate the plates containing the cells and compounds at 37° C., 5% CO2 for 24 hours.
5. After 24 hours' incubation, fetch 20 μL supernatant from each well to transfer to another transparent 96-well cell culture plate. Add 180 μL QUANTI-Blue to each well of the cell culture plate containing 20 μL supernatant, and incubate at 37° C., 5% CO2 for 1 hour.
6. After 1 hour, determine alkaline phosphatase levels in 20 μL supernatant by using ELIASA reading at OD650.
7. Data analysis by Prism software, EC50 of each compound was obtained.

Female Balb/c mice = assay: Induction of IFN-α and TNF-α following intranasal dosing in the mouse; type: in vivo; settings: serum, 2 h after single i.n. dose; for IFN-α Conc. (1 mM): 1 mM (0.1 mpk); for IFN-α Conc. (3 mM) / TNF-α Conc. (3 mM): 3 mM (0.3 mpk); for IFN-α Conc. (10 mM) / TNF-α Conc. (10 mM): 10 mM (1 mpk); for IFN-α Conc. (30 mM) / TNF-α Conc. (30 mM): 30 mM (3 mpk)
Experimental: Test 3: Assay for the Induction of Interferon-α (IFN-α) and Tumor Necrosis Factor-α (TNF-α) Following Intranasal Dosing in the Mouse
Female Balb/c mice (18-20 g) were anesthetized with isoflurane and then administered intranasally (20 μL in total between the nostrils) with compounds dissolved in saline with 0.2% Tween 80. After two hours, mice were euthanased by CO2 inhalation and blood samples were taken by cardiac puncher. Then blood samples were centrifuged and serum was collected. Serum samples were tested by ELISA with appropriate dilution according to the manufacturer's instructions. In this model, compounds could induce different IFN-α/TNF-α levels related to the dose of the compounds, while no IFN-α/TNF-α was detected in vehicle treated controls.

SMILES	EC50 (hTLR7) [µM]	also measured
CCCCOc1nc(N)c2[nH]c(C#N)c(CCCCCN3CCCCC3)c2n1 [Example 1, 4-Amino-2-butoxy-7-(5-(piperidin-1-yl)pentyl)-5H-pyrrolo[3,2-d]pyrimidine-6-carbonitrile formate]	0.001 to 0.1	IFN-α Conc. (1 mM) (Female Balb/c mice): 500 pg/mL; IFN-α Conc. (3 mM) (Female Balb/c mice): 4500 pg/mL; TNF-α Conc. (3 mM) (Female Balb/c mice): 100 pg/mL; IFN-α Conc. (10 mM) (Female Balb/c mice): 7500 pg/mL; TNF-α Conc. (10 mM) (Female Balb/c mice): 300 pg/mL; IFN-α Conc. (30 mM) (Female Balb/c mice): 7000 pg/mL; TNF-α Conc. (30 mM) (Female Balb/c mice): 500 pg/mL
CCC[C@H](C)Oc1nc(N)c2[nH]c(C#N)c(CCCCCN3CCCCC3)c2n1 [Example 2, (S)-4-amino-(1-methylbutoxy)-7-(5-(piperidin-1-yl)pentyl)-5H-pyrrolo[3,2-d]pyrimidine-6-carbonitrile formate]	0.001 to 0.1	
CCCCOc1nc(N)c2[nH]c(C#N)c(CCCCN3CCCCC3)c2n1 [Example 3, 4-amino-2-butoxy-7-(4-(piperidin-1-yl)butyl)-5H-pyrrolo[3,2-d]pyrimidine-6-carbonitrile formate]	0.001 to 0.1	
CCCCOc1nc(N)c2[nH]c(C#N)c(CCCCCN3CCOCC3)c2n1 [Example 4, 4-amino-2-butoxy-7-(5-morpholin-1-yl)pentyl)-5H-pyrrolo[3,2-d]pyrimidine-6-carbonitrile formate]	0.001 to 0.1	
CCCCOc1nc(N)c2[nH]c(C#N)c(CCCCCN3CC4(COC4)C3)c2n1 [Example 5, 7-(5-(2-oxa-6-azaspiro[3.3]heptan-6-yl)pentyl)-4-amino-2-butoxy-5H-pyrrolo[3,2-d]pyrimidine-6-carbonitrile formate]	0.001 to 0.1	
CCCCOc1nc(N)c2[nH]c(C#N)c(CCCCCN3CCN(C)CC3)c2n1 [Example 6, 4-amino-2-butoxy-7-(5-(4-methylpiperazin-1-yl)pentyl)-5H-pyrrolo[3,2-d]pyrimidine-6-carbonitrile formate]	0.001 to 0.1	
CCCCOc1nc(N)c2[nH]c(C#N)c(CCCCCN3CC4CC3CN4C)c2n1 (stereo not shown) [Example 7, 4-amino-2-butoxy-7-(5-(5-methyl-2,5-diazabicyclo[2.2.1]heptan-2-yl)pentyl)-5H-pyrrolo[3,2-d]pyrimidine-6-carbonitrile formate]	0.25 to 0.5	
CCCCOc1nc(N)c2[nH]c(C#N)c(CCCCCN(CC)CC)c2n1 [Example 8, 4-amino-2-butoxy-7-(5-(diethylamino)pentyl)-5H-pyrrolo[3,2-d]pyrimidine-6-carbonitrile formate]	0.001 to 0.1	
CCCCOc1nc(N)c2[nH]c(C#N)c(CCCCCN3CCC(F)(F)CC3)c2n1 [Example 9, 4-amino-2-butoxy-7-(5-(4,4′-difluoro-1-piperidinyl)pentyl)-5H-pyrrolo[3,2-d]pyrimidine-6-carbonitrile formate]	0.1 to 0.25	
CCCCOc1nc(N)c2[nH]c(C#N)c(CCCCCN3CCN(C)CC3=O)c2n1 [Example 11, 4-amino-2-butoxy-7-(5-(4-methyl-2-oxopiperazin-1-yl)pentyl)-5H-pyrrolo[3,2-d]pyrimidine-6-carbonitrile formate]	0.1 to 0.25	
CCCCOc1nc(N)c2[nH]c(C#N)c(CCCCCN3CCC[C@@H]3C(N)=O)c2n1 [Example 13]	0.001 to 0.1	
CCCCOc1nc(N)c2[nH]c(C#N)c(CCCCCN3CCCC3C(=O)N(C)C)c2n1 (stereo not shown) [Example 14, 4-amino-2-butoxy-7-(5-(2-(N,N′-dimethylformamido)-pyrrolidin-1-yl)pentyl)-5H-pyrrolo[3,2-d]pyrimidin-6-nitrile formate]	0.001 to 0.1	
CCCCOc1nc(N)c2[nH]c(C#N)c(CCCCCN3CCCC3C(=O)N3CCN(C)CC3)c2n1 (stereo not shown) [Example 15, 4-amino-2-butoxy-7-(5-((2-(4-methylpiperazine-1-carbonyl)pyrrolidin-1-yl)pentyl)-5H-pyrrolo[3,2-d]pyrimidine-6-carbonitrile formate]	0.1 to 0.25	
CCCCOc1nc(N)c2[nH]c(C#N)c(CCCCCN3CCCC3C(=O)NCC3CC3)c2n1 (stereo not shown) [Example 16, formate]	0.1 to 0.25	
CCCCOc1nc(N)c2[nH]c(C#N)c(CCCCCN3CCCCC3C(N)=O)c2n1 (stereo not shown) [Example 17, hydrochloride]	0.001 to 0.1	
CCCCOc1nc(N)c2[nH]c(C#N)c(CCCCCNC(C(N)=O)C(C)C)c2n1 (stereo not shown) [Example 18, 4-amino-2-butoxy-7-(5-((1-formamido-1′-isopropyl)amino)pentyl)-5H-pyrrolo[3,2-d]pyrimidine-6-carbonitrile hydrochloride]	0.001 to 0.1	
CCCCOc1nc(N)c2[nH]c(C#N)c(CCCCCCN3CCCC3)c2n1 [Example 19, 4-amino-2-butoxy-7-(6-(tetrahydropyrrol-1-yl)hexyl)-5H-pyrrolo[3,2-d]pyrimidine-6-carbonitrile formate]	0.001 to 0.1	
CCCCOc1nc(N)c2[nH]c(C#N)c(CCCCCN3CCCC3)c2n1 [Example 20, 4-amino-2-butoxy-7-(5-(tetrahydropyrrol-1-yl)pentyl)-5H-pyrrolo[3,2-d]pyrimidine-6-carbonitrile hydrochloride]	0.001 to 0.1	
CCCCOc1nc(N)c2[nH]c(C#N)c(CCCCCN3CC4CCC(C3)N4C)c2n1 [Example 21, 4-amino-2-butoxy-7-(5-(8-methyl-3,8-diazabicyclo[3.2.1]octan-3-yl)pentyl)-5H-pyrrolo[3,2-d]pyrimidine-6-carbonitrile formate]	0.1 to 0.25	
CCCCOc1nc(N)c2[nH]c(C#N)c(CCCCC3CCCCN3)c2n1 (stereo not shown) [Example 22, 4-amino-2-butoxy-7-(4-(piperidin-2-yl)butyl)-5H-pyrrolo[3,2-d]pyrimidine-6-carbonitrile formate]	0.1 to 0.25	
CCCCOc1nc(N)c2[nH]c(C#N)c(CCCCC3CCCCN3C(=O)NC)c2n1 (stereo not shown) [Example 23, 4-amino-2-butoxy-7-(4-(1-(1-N-methylcarbonyl)piperidin-2-yl)butyl)-5H-pyrrolo[3,2-d]pyrimidin-6-nitrile]	0.1 to 0.25	
CCCCOc1nc(N)c2[nH]c(C#N)c(CCCC3CCN(C)CC3)c2n1 [Example 24, 4-amino-2-butoxy-7-(3-(1-methylpiperidin-4-yl)propyl)-5H-pyrrolo[3,2-d]pyrimidine-6-carbonitrile formate]	0.001 to 0.1	
CCC[C@H](C)Oc1nc(N)c2[nH]c(=O)n(CCCCCN3CCCCC3)c2n1.Cl [GSK-2245035, reference compound]	0.001 to 0.1	IFN-α Conc. (1 mM) (Female Balb/c mice): <100 pg/mL; IFN-α Conc. (3 mM) (Female Balb/c mice): 1000 pg/mL; TNF-α Conc. (3 mM) (Female Balb/c mice): <10 pg/mL; IFN-α Conc. (10 mM) (Female Balb/c mice): 3500 pg/mL; TNF-α Conc. (10 mM) (Female Balb/c mice): 50 pg/mL; IFN-α Conc. (30 mM) (Female Balb/c mice): 4500 pg/mL; TNF-α Conc. (30 mM) (Female Balb/c mice): 400 pg/mL
